Experimental data from US20240228535A1 (priority 2022, published 2024).

What follows are compounds tested against SARS2 coronavirus 3CL protease (Severe acute respiratory syndrome coronavirus 2, UniProt P0DTD1) (assay: biochemical). Conditions: 5 nM enzyme, 30 min pre-incubation with compound, 15 μM peptide substrate, 4 h at room temperature; read-out: FRET Potency (nM); IC50 values in the SARS2 3CLPro FRET assay.
C[C@@H]1C[C@@H](C[C@H](NC(=O)c2cc(F)ccc2NC(=O)c2cccc(C(F)(F)F)c2)C(=O)C(=O)NC2CC2)C(=O)N1 [Example 78, N-[(1S)-3-(cyclopropylamino)-1-[[(3S,5R)-5-methyl-2-oxo-pyrrolidin-3-yl]methyl]-2,3-dioxo-propyl]-5-fluoro-2-[[3-(trifluoromethyl)benzoyl]amino]benzamide] showed an IC50 of 4.6 nM. O=C(NC1CC1)C(=O)[C@H](C[C@@H]1CCNC1=O)NC(=O)c1cc(Cl)c(F)cc1NC(=O)c1cncc(C(F)(F)F)c1 [Example 79] showed an IC50 of 11.3 nM. C[C@@H]1C[C@@H](C[C@H](NC(=O)c2cc(Cl)cc(Cl)c2NC(=O)C23CC(F)(C2)C3)C(=O)C(=O)NC2CC2)C(=O)N1 [Example 80, N-[2,4-dichloro-6-[[(1S)-3-(cyclopropylamino)-1-[[(3S,5R)-5-methyl-2-oxo-pyrrolidin-3-yl]methyl]-2,3-dioxo-propyl]carbamoyl]phenyl]-3-fluoro-bicyclo[1.1.1]pentane-1-carboxamide] gave an IC50 of 21.6 nM. For CNC(=O)C(=O)[C@H](C[C@@H]1CCNC1=O)NC(=O)c1cc(Cl)ccc1NC(=O)C1(C(F)(F)F)CC1 [Example 81, 5-chloro-N-[(1S)-3-(methylamino)-2,3-dioxo-1-[[(3S)-2-oxopyrrolidin-3-yl]methyl]propyl]-2-[[1-(trifluoromethyl)cyclopropane-carbonyl]amino]benzamide], the IC50 was 15.9 nM. C[C@@H]1C[C@@H](C[C@H](NC(=O)c2cc(Cl)ccc2NC(=O)C2CC23CC3)C(=O)C(=O)NC2CC2)C(=O)N1 (stereo partly drawn) [Example 82, N-[4-chloro-2-[[(1S)-3-(cyclopropylamino)-1-[[(3S,5R)-5-methyl-2-oxo-pyrrolidin-3-yl]methyl]-2,3-dioxo-propyl]carbamoyl]phenyl] spiro[2.2]pentane-2-carboxamide] showed an IC50 of 10.8 nM. Compound C[C@@H]1C[C@@H](C[C@H](NC(=O)c2cc(Cl)ccc2NC(=O)C2CC23CC3)C(=O)C(=O)NC2CC2)C(=O)N1 (stereo partly drawn) [Example 83, N-[4-chloro-2-[[(1S)-3-(cyclopropylamino)-1-[[(3S,5R)-5-methyl-2-oxo-pyrrolidin-3-yl]methyl]-2,3-dioxo-propyl]carbamoyl]phenyl] spiro[2.2]pentane-2-carboxamide] has an IC50 of 10.5 nM. For C[C@@H]1C[C@@H](C[C@H](NC(=O)c2cc(Cl)ccc2NC(=O)C2CC2C(F)(F)F)C(=O)C(=O)NC2CC2)C(=O)N1 (stereo partly drawn) [Example 84, 5-chloro-N-[(1S)-3-(cyclopropylamino)-1-[[(3S,5R)-5-methyl-2-oxo-pyrrolidin-3-yl]methyl]-2,3-dioxo-propyl]-2-[[2-(trifluoromethyl)cyclopropane-carbonyl]amino]benzamide], the IC50 was 20.6 nM. With C[C@@H]1C[C@@H](C[C@H](NC(=O)c2cc(Cl)ccc2NC(=O)C2CC2C(F)(F)F)C(=O)C(=O)NC2CC2)C(=O)N1 (stereo partly drawn) [Example 85, 5-chloro-N-[(1S)-3-(cyclopropylamino)-1-[[(3S,5R)-5-methyl-2-oxo-pyrrolidin-3-yl]methyl]-2,3-dioxo-propyl]-2-[[2-(trifluoromethyl)cyclopropane-carbonyl]amino]benzamide] the IC50 was 15.2 nM. Work on C[C@@H]1C[C@@H](C[C@H](NC(=O)c2cc(Cl)ccc2NC(=O)c2cc(C(F)(F)F)ccn2)C(=O)C(=O)NC2CC2)C(=O)N1 [Example 86, N-[4-chloro-2-[[(1S)-3-(cyclopropylamino)-1-[[(3S,5R)-5-methyl-2-oxo-pyrrolidin-3-yl]methyl]-2,3-dioxo-propyl]carbamoyl]phenyl]-4-(trifluoromethyl)pyridine-2-carboxamide] yielded an IC50 of 6.8 nM. C[C@@H]1C[C@@H](C[C@H](NC(=O)c2cc(Cl)c(F)cc2NC(=O)c2ccnc(C(F)(F)F)c2)C(=O)C(=O)NC2CC2)C(=O)N1 [Example 87] gave an IC50 of 6.6 nM. CNC(=O)C(=O)C(CC1C[C@@H](C(F)(F)F)NC1=O)NC(=O)c1cc(C#N)ccc1NC(=O)CCC(F)(F)F (stereo partly drawn) [Example 88, 5-cyano-N-[3-(methylamino)-2,3-dioxo-1-[[(5S)-2-oxo-5-(trifluoromethyl)pyrrolidin-3-yl]methyl]propyl]-2-(4,4,4-trifluorobutanoylamino) benzamide] gave an IC50 of 114 nM. With CC(C(=O)Nc1ccc(Cl)cc1C(=O)N[C@@H](C[C@@H]1C[C@@H](C)NC1=O)C(=O)C(=O)NC1CC1)c1cscn1 (stereo partly drawn) [Example 89, 5-chloro-N-[(1S)-3-(cyclopropylamino)-1-[[(3S,5R)-5-methyl-2-oxo-pyrrolidin-3-yl]methyl]-2,3-dioxo-propyl]-2-(2-thiazol-4-ylpropanoylamino)benzamide] the IC50 was 10.1 nM. For CNC(=O)C(=O)[C@H](C[C@@H]1CCNC1=O)NC(=O)c1cc(Cl)ccc1NC(=O)c1ccnc(C(F)(F)F)c1 [Example 90], the IC50 was 12.3 nM. CNC(=O)C(=O)[C@H](C[C@@H]1C[C@@H](C)NC1=O)NC(=O)c1cc(Cl)ccc1NC(=O)c1cncc(C(F)(F)F)c1 [Example 91, N-[4-chloro-2-[[(1S)-3-(methylamino)-1-[[(3S,5R)-5-methyl-2-oxo-pyrrolidin-3-yl]methyl]-2,3-dioxo-propyl]carbamoyl]phenyl]-5-(trifluoromethyl)pyridine-3-carboxamide] was tested, and the IC50 was 6.1 nM. Work on C[C@@H]1C[C@@H](C[C@H](NC(=O)c2cc(Cl)ccc2NC(=O)c2ccnc(C(F)F)c2)C(=O)C(=O)NC2CC2)C(=O)N1 [Example 92, N-[4-chloro-2-[[(1S)-3-(cyclopropylamino)-1-[[(3S,5R)-5-methyl-2-oxo-pyrrolidin-3-yl]methyl]-2,3-dioxo-propyl]carbamoyl]phenyl]-2-(difluoromethyl)pyridine-4-carboxamide] yielded an IC50 of 9 nM. CC(C(=O)Nc1ccc(Cl)cc1C(=O)N[C@@H](C[C@@H]1C[C@@H](C)NC1=O)C(=O)C(=O)NC1CC1)c1cscn1 (stereo partly drawn) [Example 93, 5-chloro-N-[(1S)-3-(cyclopropylamino)-1-[[(3S,5R)-5-methyl-2-oxo-pyrrolidin-3-yl]methyl]-2,3-dioxo-propyl]-2-(2-thiazol-4-ylpropanoylamino)benzamide] gave an IC50 of 12.6 nM. C[C@@H]1C[C@@H](C[C@H](NC(=O)c2cc(Cl)ccc2NC(=O)c2cncc(C(F)(F)F)c2)C(=O)C(=O)NC2CC2)C(=O)N1 [Example 94, N-[4-chloro-2-[[(1S)-3-(cyclopropylamino)-1-[[(3S,5R)-5-methyl-2-oxo-pyrrolidin-3-yl]methyl]-2,3-dioxo-propyl]carbamoyl]phenyl]-5-(trifluoromethyl)pyridine-3-carboxamide] showed an IC50 of 10.6 nM. With CNC(=O)C(=O)[C@H](C[C@@H]1CCNC1=O)NC(=O)c1cc(C(F)(F)F)ccc1NC(=O)C1(C(F)(F)F)CC1 [Example 95, N-[(1S)-3-(methylamino)-2,3-dioxo-1-[[(3S)-2-oxopyrrolidin-3-yl]methyl]propyl]-5-(trifluoromethyl)-2-[[1-(trifluoromethyl)cyclopropane-carbonyl]amino]benzamide] the IC50 was 44.7 nM. CC(C)OC(=O)Nc1ccc(Cl)cc1C(=O)N[C@@H](C[C@@H]1CCNC1=O)C(=O)C(=O)NC1CC1 [Example 96, isopropyl N-[4-chloro-2-[[(1S)-3-(cyclopropylamino)-2,3-dioxo-1-[[(3S)-2-oxopyrrolidin-3-yl]methyl]propyl]carbamoyl]phenyl]carbamate] was tested, and the IC50 was 6 nM. C[C@@H]1C[C@@H](C[C@H](NC(=O)c2cc(Cl)ccc2NC(=O)C2CC2C(F)(F)F)C(=O)C(=O)NC2CC2)C(=O)N1 (stereo partly drawn) [Example 97, 5-chloro-N-[(1S)-3-(cyclopropylamino)-1-[[(3S,5R)-5-methyl-2-oxo-pyrrolidin-3-yl]methyl]-2,3-dioxo-propyl]-2-[[2-(trifluoromethyl)cyclopropane-carbonyl]amino]benzamide] showed an IC50 of 7.7 nM. For C[C@@H]1C[C@@H](C[C@H](NC(=O)c2cc(Cl)ccc2NC(=O)C2CC2C(F)(F)F)C(=O)C(=O)NC2CC2)C(=O)N1 (stereo partly drawn) [Example 98, 5-chloro-N-[(1S)-3-(cyclopropylamino)-1-[[(3S,5R)-5-methyl-2-oxo-pyrrolidin-3-yl]methyl]-2,3-dioxo-propyl]-2-[[2-(trifluoromethyl)cyclopropane-carbonyl]amino]benzamide], the IC50 was 9.5 nM. C[C@@H]1C[C@@H](C[C@H](NC(=O)c2cc(F)c(F)cc2NC(=O)c2cncc(C(F)(F)F)c2)C(=O)C(=O)NC2CC2)C(=O)N1 [Example 99, N-[2-[[(1S)-3-(cyclopropylamino)-1-[[(3S,5R)-5-methyl-2-oxo-pyrrolidin-3-yl]methyl]-2,3-dioxo-propyl]carbamoyl]-4,5-difluoro-phenyl]-5-(trifluoromethyl)pyridine-3-carboxamide] was tested, and the IC50 was 13 nM. C[C@@H]1C[C@@H](C[C@H](NC(=O)c2cc(Cl)ccc2NC(=O)c2ccn(CC(F)(F)F)n2)C(=O)C(=O)NC2CC2)C(=O)N1 [Example 100, N-[4-chloro-2-[[(1S)-3-(cyclopropylamino)-1-[[(3S,5R)-5-methyl-2-oxo-pyrrolidin-3-yl]methyl]-2,3-dioxo-propyl]carbamoyl]phenyl]-1-(2,2,2-trifluoroethyl)pyrazole-3-carboxamide] showed an IC50 of 5.9 nM. COC(=O)Nc1ccc(Cl)cc1C(=O)N[C@@H](C[C@@H]1C[C@@H](C)NC1=O)C(=O)C(=O)NC1CC1 [Example 101, methyl N-[4-chloro-2-[(1S)-3-(cyclopropylamino)-1-[[(3S,5R)-5-methyl-2-oxo-pyrrolidin-3-yl]methyl]-2,3-dioxo-propyl]carbamoyl]phenyl] carbamate] gave an IC50 of 7.8 nM. For O=C(NC1CC1)C(=O)[C@H](C[C@@H]1CCNC1=O)NC(=O)c1cc(Cl)ccc1NC(=O)C1(C(F)(F)F)CC1 [Example 102], the IC50 was 12.9 nM. CNC(=O)C(=O)[C@H](C[C@@H]1C[C@@H](C)NC1=O)NC(=O)c1ccccc1NC(=O)OC [Example 103, methyl N-[2-[[(1S)-3-(methylamino)-1-[[(3S,5R)-5-methyl-2-oxo-pyrrolidin-3-yl]methyl]-2,3-dioxo-propyl]carbamoyl]phenyl] carbamate] showed an IC50 of 86.2 nM. CNC(=O)C(=O)[C@H](C[C@@H]1C[C@@H](C)NC1=O)NC(=O)c1cc(F)ccc1NC(=O)OC [Example 104, methyl N-[4-fluoro-2-[(1S)-3-(methylamino)-1-[[(3S,5R)-5-methyl-2-oxo-pyrrolidin-3-yl]methyl]-2,3-dioxo-propyl]carbamoyl]phenyl] carbamate] showed an IC50 of 15.3 nM.
